Data set [1] concerns C3H/HeJ mice. Nature of the data set: Topical treatment of epilated back skin, hair pigmentation. It counts as in vivo, mouse. On the procedure:
Therefore, experiments were performed to determine whether inhibition of sAC in animals could alter hair pigmentation. Animal experiments were performed in accordance with approved Institutional Animal Care and Use Committee protocol at Weill Cornell Medicine. Age and gender matched C3H/HeJ mice (female, 7 weeks old) were purchased from The Jackson Laboratory. For the analysis of hair pigmentation, the upper and lower dorsum of each mouse were epilated using hair removal wax. 10 μl of KH7 (42 mg/ml in DMSO), LRE1 (28 mg/ml in DMSO) or DMSO (vehicle control) was topically applied onto the upper back and DMSO was applied to the lower back three times a day over two weeks. These mice were monitored for changes in coat color as the epilated hair grew back. Hair was removed from each treated area after 3 weeks to measure the length of the total hair, apical black tip and subapical agouti (pheomelanin) band under a stereo microscope. Mice were euthanized and the treated skin was submitted to a blinded animal pathologist for histological evaluation of the epidermis and hair follicles. This experiment was performed twice with 3-4 mice per cohort (total n=6-7)

The subject of a further data set is sAC^KO mouse melanocytes. The data set can be described thus: LysoSensor Yellow/Blue DND-160 organelle pH assay. Type of data set: cell-based. As to conditions: 30 μM, 4 hours. The method, then: (§1) To determine the pH of the sAC^KO and sAC^FF melanocytes the pH-sensitive vital dye LysoSensor Yellow/Blue DND-160 (Bellono et al. Sci Rep., 6:26570 (2016)) was used. Briefly, cells were incubated with 1 μM LysoSensor DND-160 (Invitrogen) for 5 minutes at 37° C. Lysosensor was excited at 405 nm and its emission detected at 417-483 nm (W1) and 490-530 nm (W2). The ratio of emissions (W1/W2) in Lysosensor-stained puncta was assigned to a pH value based on a calibration curve generated for each experiment using solutions containing 125 mM KCl, 25 mM NaCl, 24 μM monensin, and varying concentrations of MES to adjust the pH to 4, 4.5, 5.0, 5.5, 6.0, 6.5, 7.0, 7.5. The fluorescence ratio was linear for pH 5.0-7.0.
as §1, with “The effect” for “To determine the pH”, “pharmacologic inhibition of sAC was examined using” for “the sAC^KO and sAC^FF melanocytes”, “vial” for “vital”, “assay, described above.” for “(Bellono et al. Sci Rep., 6:26570 (2016)) was used.”, “Briefly, cultured sAC^FF melanocytes were treated for 4 hours with 30 μM KH7, 30 μM LRE1, or control (untreated). The” for “Briefly,”

In another data set the test system is sAC^FF mouse melanocytes. The data set can be described thus: LysoSensor Yellow/Blue DND-160 organelle pH assay. Type of data set: cell-based. The note with it: 30 μM, 4 hours. On the procedure:
as §1
as §1, with “The effect” for “To determine the pH”, “pharmacologic inhibition of sAC was examined using” for “the sAC^KO and sAC^FF melanocytes”, “vial” for “vital”, “assay, described above.” for “(Bellono et al. Sci Rep., 6:26570 (2016)) was used.”, “Briefly, cultured sAC^FF melanocytes were treated for 4 hours with 30 μM KH7, 30 μM LRE1, or control (untreated). The” for “Briefly,”

Data set [2] relates to C3H/HeJ mice. The data set can be described thus: Topical treatment of ear, epidermal pigmentation (Fontana Masson). Type of data set: in vivo, mouse. The note with it: topical on right ear, twice a day for two weeks. The method, then:
Melanocytes also exist in the epidermis at specific areas of mouse skin (e.g., pinnae) (Nordlund et al., Dermatol Clin., 4(3): 407-418 (1986)); thus, these areas were studied to examine the role of sAC in epidermal pigmentation. For analysis of epidermal pigmentation, using C3H/HeJ mice as above, 20 μl of KH7 ([…]), LRE1 (28 mg/ml) or DMSO (vehicle control) was topically applied on the right ear and DMSO was topically applied on the left ear twice a day for two weeks. Ear skin was monitored daily for irritation and changes in pigmentation. After two weeks, mice were euthanized and the treated skin was submitted to a blinded animal pathologist for histological evaluation of the epidermis and special stains (Fontana Masson). This experiment was performed twice with 3 mice per cohort (total n=6)

The mark [3] stands for this setting: topical on back, hair removed after 3 weeks.

Take `CC(Sc1nc2ccccc2[nH]1)C(=O)N/N=C/c1cc(Br)ccc1O` (centres unmarked) [KH7]: in the data set with C3H/HeJ mice [1] (setting [3]), the “eumelanin production in hair (microscopic examination)” value is given as “increase in eumelanin production” and the “length of the agouti (pheomelanin) band” value is on record as “reduction in length of the agouti (pheomelanin) band”. The “histologic examination of treated skin” value in the data set with C3H/HeJ mice [1] (topical on back, two weeks) is listed as “did not reveal any pathological change to the hair follicles or epidermis”. In addition, in the data set on C3H/HeJ mice [1] (topical on epilated back, 10 μl KH7 42 mg/ml or LRE1 28 mg/ml in DMSO, three times a day over two weeks), the “colour of regrown hair versus vehicle control” value is “visual darkening of regrown hair”. Besides, in the data set on sAC^KO mouse melanocytes, the “pH of LysoSensor-visualized organelles” value was “had no effect”. Besides, the “pH of LysoSensor-visualized organelles” value in the data set on sAC^FF mouse melanocytes is “induced an alkaline pH shift”. The “colour of ear epidermis relative to vehicle control” value in the data set with C3H/HeJ mice [2] (20 μl KH7 or LRE1 (28 mg/ml)) is listed as “induced visual darkening of mouse ear epidermis”. In addition, the “epidermal melanin accumulation (Fontana Masson)” value with C3H/HeJ mice [2] is reported as “increase in epidermal melanin accumulation”.

The values are drawn from patent US11680264B2, “Methods of modulating melanosome pH and melanin level in cells” (Cornell University, priority 2016, dated 2023).
